According to US7772241B2, “Variolin derivatives and their use as antitumor agents” (Pharma Mar S.A., priority 2001, dated 2010):
Where two headings read alike, the source gives them in different places.

Assays:
K-562 = assay: Inhibition of cells growth by colorimetric (SRB) assay, K-562; details: for GI50 / CC50: Homo sapiens, K562, 48 h; for GI50: read-out: GI50 K-562, SRB assay, 48 hours exposure; for CC50: read-out: LC50 K-562, SRB assay, 48 hours exposure; for TGI K-562: SRB assay, 48 hours exposure
From the text: (§1) The finality of these assays is to interrupt the growth of a “in vitro” tumor cell culture by means a continued exhibition of the cells to the sample to be testing.
(§2) This form of the assay employs 96 well cell culture microplates of 9 mm diameter (Faircloth, 1988; Mosmann, 1983). Most of the cell lines are obtained from American Type Culture Collection (ATCC) derived from different human cancer types.
(§3) Cells are maintained in RPMI 1640 10% FBS, supplemented with 0.1 g/l penicillin and 0.1 g/l streptomycin sulphate and then incubated at 37° C., 5% CO2 and 98% humidity. For the experiments, cells were harvested from subconfluent cultures using trypsin and resuspended in fresh medium before plating.
(§4) Cells are seeded in 96 well microtiter plates, at 5×10^3 cells per well in aliquots of 195 μl medium, and they are allowed to attach to the plate surface by growing in drug free medium for 18 hours. Afterward, samples are added in aliquots of 5 μl in a ranging from 10 to 10^−8 μg/ml, dissolved in DMSO/EtOH/PBS (0.5:0.5:99). After 48 hours exposure, the antitumor effect are measured by the SRB methodology: cells are fixed by adding 50 μl of cold 50% (wt/vol) trichloroacetic acid (TCA) and incubating for 60 minutes at 4° C. Plates are washed with deionized water and dried. One hundred μl of SRB solution (0.4% wt/vol in 1% acetic acid) is added to each microtiter well and incubated for 10 minutes at room temperature. Unbound SRB is removed by washing with 1% acetic acid. Plates are air dried and bound stain is solubilized with Tris buffer. Optical densities are read on a automated spectrophotometric plate reader at a single wavelength of 490 nm.
(§5) The values for mean +/−SD of data from triplicate wells are calculated. Some parameters for cellular responses can be calculated: GI=growth inhibition, TGI=total growth inhibition (cytostatic effect) and LC=cell killing (cytotoxic effect).

A-549 = assay: Inhibition of cells growth by colorimetric (SRB) assay, A-549; details: for GI50 / CC50: Homo sapiens, A549, 48 h; for GI50: read-out: GI50 A-549, SRB assay, 48 hours exposure; for CC50: read-out: LC50 A-549, SRB assay, 48 hours exposure; for TGI A-549: SRB assay, 48 hours exposure
From the text: as §1, §2, §3, §4, §5

SK-MEL-28 = assay: Inhibition of cells growth by colorimetric (SRB) assay, SK-MEL-28
From the text: as §1, §2, §3, §4, §5

HT-29 = assay: Inhibition of cells growth by colorimetric (SRB) assay, HT-29; details: for GI50 / CC50: Homo sapiens, HT-29, 48 h; for GI50: read-out: GI50 HT-29, SRB assay, 48 hours exposure; for CC50: read-out: LC50 HT-29, SRB assay, 48 hours exposure; for TGI HT-29: SRB assay, 48 hours exposure
From the text: as §1, §2, §3, §4, §5

LoVo = assay: Inhibition of cells growth by colorimetric (SRB) assay, LoVo; details: for GI50: read-out: GI50 LOVO, SRB assay, 48 hours exposure
From the text: as §1, §2, §3, §4, §5

LoVo-Dox = assay: Inhibition of cells growth by colorimetric (SRB) assay, LoVo-Dox; details: for GI50 / CC50: Homo sapiens, 48 h; for GI50: read-out: GI50 LOVO-DOX, SRB assay, 48 hours exposure; for CC50: read-out: LC50 LOVO-DOX, SRB assay, 48 hours exposure; for TGI LOVO-DOX: SRB assay, 48 hours exposure
From the text: as §1, §2, §3, §4, §5

DU-145 = assay: Inhibition of cells growth by colorimetric (SRB) assay, DU-145; details: for GI50: read-out: GI50 DU-145, SRB assay, 48 hours exposure
From the text: as §1, §2, §3, §4, §5

SK-BR-3 = assay: Inhibition of cells growth by colorimetric (SRB) assay, SK-BR-3
From the text: as §1, §2, §3, §4, §5

IGROV-1 = assay: Inhibition of cells growth by colorimetric (SRB) assay, IGROV-1; details: for GI50: read-out: GI50 IGROV, SRB assay, 48 hours exposure
From the text: as §1, §2, §3, §4, §5

IGROV-ET = assay: Inhibition of cells growth by colorimetric (SRB) assay, IGROV-ET; details: for GI50 / CC50: Homo sapiens, 48 h; for GI50: read-out: GI50 IGROV-ET, SRB assay, 48 hours exposure; for CC50: read-out: LC50 IGROV-ET, SRB assay, 48 hours exposure; for TGI IGROV-ET: SRB assay, 48 hours exposure
From the text: as §1, §2, §3, §4, §5

SK-OV-3 = assay: Inhibition of cells growth by colorimetric (SRB) assay, SK-OV-3; details: for GI50 / CC50: Homo sapiens, SK-OV-3, 48 h; for GI50: read-out: GI50 SKOV-3, SRB assay, 48 hours exposure; for CC50: read-out: LC50 SKOV-3, SRB assay, 48 hours exposure; for TGI SKOV-3: SRB assay, 48 hours exposure
From the text: as §1, §2, §3, §4, §5

PANC-1 = assay: Inhibition of cells growth by colorimetric (SRB) assay, PANC-1; details: for GI50 / CC50: Homo sapiens, PANC-1, 48 h; for GI50: read-out: GI50 PANC-1, SRB assay, 48 hours exposure; for CC50: read-out: LC50 PANC-1, SRB assay, 48 hours exposure; for TGI PANC-1: SRB assay, 48 hours exposure
From the text: as §1, §2, §3, §4, §5

LNCaP = assay: Inhibition of cells growth by colorimetric (SRB) assay, LNCaP
From the text: as §1, §2, §3, §4, §5

SMILES | GI50 (K-562) [µM] | CC50 (K-562) [µM] | TGI K-562 (K-562) | GI50 (A-549) [µM] | CC50 (A-549) [µM] | TGI A-549 (A-549) | TGI MEL-28 (SK-MEL-28; SRB assay, 48 hours exposure) | GI50 (HT-29) [µM] | CC50 (HT-29) [µM] | TGI HT-29 (HT-29) | GI50 (LoVo; Homo sapiens, LoVo, 48 h) [µM] | TGI LOVO (LoVo; SRB assay, 48 hours exposure) | GI50 (LoVo-Dox) [µM] | CC50 (LoVo-Dox) [µM] | TGI LOVO-DOX (LoVo-Dox) | GI50 (DU-145; Homo sapiens, DU-145, 48 h) [µM] | TGI DU-145 (DU-145; SRB assay, 48 hours exposure) | GI50 (IGROV-1; Homo sapiens, IGROV-1, 48 h) [µM] | TGI IGROV (IGROV-1; SRB assay, 48 hours exposure) | GI50 (IGROV-ET) [µM] | other results
Nc1nccc(-c2c3c(N)ccnc3n3c(N)nccc23)n1 [Compound 90] | 1.23 | 15.8 | 5.28E−06 | 0.887 | 7.05 | 2.05E−06 | 9.68E−07 | 1.27 | 15.8 | 1.44E−05 | 0.276 | 6.54E−07 | 0.597 | 8.07 | 1.27E−06 | 0.355 | 1.03E−06 | 0.339 | 6.92E−07 | 1.92 | GI50 (SK-MEL-28; read-out: GI50 MEL-28, SRB assay, 48 hours exposure): 0.397 µM; CC50 (SK-MEL-28; read-out: LC50 MEL-28, SRB assay, 48 hours exposure): 3.45 µM; CC50 (LoVo; read-out: LC50 LOVO, SRB assay, 48 hours exposure): 1.56 µM; CC50 (DU-145; read-out: LC50 DU-145, SRB assay, 48 hours exposure): 10.7 µM; GI50 (SK-BR-3; Homo sapiens, SK-BR-3, 48 h, read-out: GI50 SK-BR-3, SRB assay, 48 hours exposure): 0.311 µM; CC50 (SK-BR-3; Homo sapiens, SK-BR-3, 48 h, read-out: LC50 SK-BR-3, SRB assay, 48 hours exposure): 1.42 µM; TGI SK-BR-3 (SK-BR-3; SRB assay, 48 hours exposure): 6.64E−07; CC50 (IGROV-1; read-out: LC50 IGROV, SRB assay, 48 hours exposure): 1.41 µM; CC50 (IGROV-ET): 15.8 µM; TGI IGROV-ET (IGROV-ET): 6.95E−06; GI50 (SK-OV-3): 0.465 µM; CC50 (SK-OV-3): 13.9 µM; TGI SKOV-3 (SK-OV-3): 1.15E−06; GI50 (PANC-1): 1.18 µM; CC50 (PANC-1): 15.8 µM; TGI PANC-1 (PANC-1): 4.98E−06
Nc1nccc2c(-c3cccc([N+](=O)[O-])c3)c3cccnc3n12 [Compound 64] | 9.24 | 32.8 | 2.47E−05 | 31.6 | 32.8 | 3.28E−05 | 3.28E−05 | 32.8 | 32.8 | 3.28E−05 | 23.3 | 3.28E−05 | 22.7 | 32.8 | 3.28E−05 | 31 | 3.28E−05 | 14.4 | 3.28E−05 | 18.9 | GI50 (SK-MEL-28; Homo sapiens, SK-MEL-28, 48 h, read-out: GI50 MEL-28, SRB assay, 48 hours exposure): 21.7 µM; CC50 (SK-MEL-28; Homo sapiens, SK-MEL-28, 48 h, read-out: LC50 MEL-28, SRB assay, 48 hours exposure): 32.8 µM; CC50 (LoVo; Homo sapiens, LoVo, 48 h, read-out: LC50 LOVO, SRB assay, 48 hours exposure): 32.8 µM; CC50 (DU-145; Homo sapiens, DU-145, 48 h, read-out: LC50 DU-145, SRB assay, 48 hours exposure): 32.8 µM; GI50 (LNCaP; Homo sapiens, LNCaP, 48 h, read-out: GI50 LN-caP, SRB assay, 48 hours exposure): 2.84 µM; CC50 (LNCaP; Homo sapiens, LNCaP, 48 h, read-out: LC50 LN-caP, SRB assay, 48 hours exposure): 19.9 µM; TGI LN-caP (LNCaP; SRB assay, 48 hours exposure): 7.89E−06; CC50 (IGROV-1; Homo sapiens, IGROV-1, 48 h, read-out: LC50 IGROV, SRB assay, 48 hours exposure): 32.8 µM; CC50 (IGROV-ET): 32.8 µM; TGI IGROV-ET (IGROV-ET): 3.28E−05; GI50 (SK-OV-3): 22.3 µM; CC50 (SK-OV-3): 32.8 µM; TGI SKOV-3 (SK-OV-3): 3.28E−05; GI50 (PANC-1): 20.9 µM; CC50 (PANC-1): 32.8 µM; TGI PANC-1 (PANC-1): 3.28E−05
